Experimental data reported in paper PMC6277767, “Broad and Region-Specific Impacts of the Synthetic Cannabinoid CP 55,940 in Adolescent and Adult Female Mouse Brains” (Frontiers in Molecular Neuroscience, 2018).

Test system: CD1 female mouse brain lipidome
Test: Brain-region lipid levels (HPLC/MS/MS lipidomics) 2 h after single i.p. 3 mg/kg CP 55,940 vs vehicle
Format: in vivo
Set-up: N-arachidonoyl phenylalanine level, Mean / N-stearoyl tryptophan level, Mean / N-stearoyl proline level, Mean / N-stearoyl leucine level, Mean / N-stearoyl phenylalanine level, Mean / N-stearoyl serine level, Mean / N-stearoyl methionine level, Mean: unit: moles per gram
Settings: cortex
Description: The Bloomington Institutional Animal Care and Use Committee of Indiana University reviewed and approved the animal procedures. Female mice from the CD1 strain were utilized to match our study examining THC’s effects on the brain lipidome ([Leishman et al., 2018]). Mice were given a single i.p. injection of either 3 mg/kg CP or 1:1:18 cremophor:ethanol:saline vehicle (please refer to the section “3 mg/kg CP Is Relevant for Synthetic Cannabinoid Abuse and Has Stronger Effects on the Female Mouse Brain Lipidome During Adolescence” for a justification of dose and use of female mice). Three different age groups were given injections: PND 35 and PND 50 adolescents, and adult mice (PND 113). At least eight mice in each age group received CP and at least eight received vehicle. Matching the THC study time course ([Leishman et al., 2018]), mice were sacrificed via rapid decapitation 2 h after injection. Brains were immediately removed and flash-frozen in liquid nitrogen, and then stored at -80°C until dissections were performed. Brains were dissected on an ice-cold dissection plate into the following regions: STR, HIPP, CER, THAL, CTX, HYP, MID, and STEM. These abbreviations for these brain areas will be used exclusively when discussing the results generated by these specific dissections. Each dissected area was immediately placed in liquid nitrogen and then stored at -80°C until used for lipid extraction.
Tissue extracts were performed as previously described ([Bradshaw et al., 2006]; [Stuart et al., 2013]; [Raboune et al., 2014]; [Leishman et al., 2016a],[b], [2017], [2018]). First, samples were shock frozen in liquid nitrogen, weighed, and transferred to a centrifuge tube. The mass of the largest sample was multiplied by 50 to determine how many milliliters of HPLC-grade methanol (Fisher, Fair Lawn, NJ, United States) to add. Then, samples were spiked with 500 pmol deuterium-labeled NAGly (d8NAGly; Cayman Chemical, Ann Arbor, MI, United States). Samples were placed on ice in darkness for 2 h then individually homogenized and centrifuged at 19,000 × g for 20 min at 20°C. Supernatants were diluted with HPLC water (purified in house) to make a solution of 75% water, 25% supernatant. Lipids were partially purified on C18 solid phase extraction columns (Agilent, Palo Alto, CA, United States). A series of four elutions with 1.5 mL of 60%, 75%, 85%, and 100% methanol were collected ([Stuart et al., 2013]; [Leishman et al., 2016a],[b], [2018]).
As previously described ([Bradshaw et al., 2006]; [Tan et al., 2006]; [Smoum et al., 2010]; [Stuart et al., 2013]; [Tortoriello et al., 2013]; [Raboune et al., 2014]; [Leishman et al., 2016a],[b], [2017], [2018]), samples were analyzed using an Applied Biosystems API 3000 triple quadrupole mass spectrometer with electrospray ionization (Foster City, CA, United States). Using an Agilent XDB-C18 reversed phase analytical column and optimized mobile phase gradients, 20 μL from each elution were chromatographed. Two Shimadzu 10ADvp pumps (Columbia, MD, United States) provided the pressure for gradient elution. Mobile phase A: 20% methanol, 80% water (v/v) and 1 mM ammonium acetate (Sigma, St. Louis, MO, United States). Mobile phase B: 100% methanol, 1 mM ammonium acetate. Every method run began with 0% mobile phase B, reached 100% mobile phase B flowing at 0.2 mL/min, and gradually returned to 0% mobile phase B.
This screening library will be referred to as the lipidome when discussing data from this study. HPLC/MS/MS data were analyzed using Analyst software (Applied Biosystems) ([Bradshaw et al., 2006]; [Tan et al., 2006]; [Stuart et al., 2013]; [Tortoriello et al., 2013]; [Raboune et al., 2014]; [Leishman et al., 2016a],[b], [2017], [2018]). Chromatograms (Supplementary Figure 3) were generated by determining the retention time of analytes from the analytical column with a [M-1] or [M+1] parent peak and a fragmentation peak corresponding to the programmed values. […]

[1] = PND 50 female mice, 3mg/kg CP 55,940
[2] = WT adult female mice, 3mg/kg CP 55,940

## CCCCCCC(C)(C)c1ccc([C@@H]2C[C@H](O)CC[C@H]2CCCO)c(O)c1 [CP 55,940]
[1]
  N-palmitoyl leucine level, Mean: 1.98E-12
  N-palmitoyl methionine level, Mean: 1.01E-12
  N-palmitoyl phenylalanine level, Mean: 1.98E-12
  N-palmitoyl proline level, Mean: BDL
  N-palmitoyl serine level, Mean: 4.17E-11
  N-palmitoyl tryptophan level, Mean: BDL
  N-palmitoyl tyrosine level, Mean: 6.65E-13
  N-palmitoyl valine level, Mean: 3.13E-13
  N-stearoyl GABA level, Mean: 1.55E-11
  N-stearoyl alanine level, Mean: 3.67E-12
  N-stearoyl ethanolamine level, Mean: 2.8E-12
  N-stearoyl glycine level, Mean: 1.45E-12
  N-stearoyl leucine level, Mean: 2.21E-12
  N-stearoyl methionine level, Mean: 1.13E-12
  N-stearoyl phenylalanine level, Mean: 2.99E-12
  N-stearoyl proline level, Mean: BDL
  N-stearoyl serine level, Mean: 3.75E-11
  N-stearoyl tryptophan level, Mean: BDL
  N-stearoyl tyrosine level, Mean: 2.52E-13
  Oleic acid level, Mean: 1.6E-09
  PGE2 level, Mean: 1.58E-10
  PhosphoLEA level, Mean: 3.22E-12
  THC level, Mean: BDL
[2]
  N-arachidonoyl GABA level, Mean: 1.28E-11
  N-arachidonoyl alanine level, Mean: 1.09E-12
  N-arachidonoyl ethanolamine level, Mean: 2.77E-11
  N-arachidonoyl glycine level, Mean: 1.07E-12
  N-arachidonoyl phenylalanine level, Mean: 5.77E-14
  N-docosahexaenoyl GABA level, Mean: 6.57E-12
  N-docosahexaenoyl ethanolamine level, Mean: 2.54E-11
  N-docosahexaenoyl glycine level, Mean: 8.32E-14
  N-docosahexaenoyl leucine level, Mean: 8.03E-13
  N-docosahexaenoyl phenylalanine level, Mean: 3E-14
  N-linoleoyl GABA level, Mean: 4.08E-12
  N-linoleoyl ethanolamine level, Mean: 2.93E-11
  N-linoleoyl glycine level, Mean: 5.03E-14
  N-linoleoyl leucine level, Mean: 9.31E-14
  N-oleoyl GABA level, Mean: 9.86E-12
  N-oleoyl alanine level, Mean: 2.22E-12
  N-oleoyl ethanolamine level, Mean: 1.38E-10
  N-oleoyl glycine level, Mean: 2.9E-13
  N-oleoyl leucine level, Mean: 7.57E-13
  N-oleoyl phenylalanine level, Mean: 3.2E-13
  N-palmitoyl GABA level, Mean: 1.4E-11
  N-palmitoyl alanine level, Mean: 2.07E-12
  N-palmitoyl ethanolamine level, Mean: 3.62E-11
  N-palmitoyl glycine level, Mean: 9.43E-13
  N-palmitoyl leucine level, Mean: 1.16E-12
  N-palmitoyl methionine level, Mean: 2.58E-12
  N-palmitoyl phenylalanine level, Mean: 2.56E-13
  N-stearoyl GABA level, Mean: 1.05E-11
  N-stearoyl alanine level, Mean: 3.38E-12
  N-stearoyl ethanolamine level, Mean: 3.18E-11
  N-stearoyl glycine level, Mean: 1.95E-12
  N-stearoyl leucine level, Mean: 1.32E-12
  N-stearoyl methionine level, Mean: 3.92E-13
  N-stearoyl phenylalanine level, Mean: 1.71E-13
PND 35, 3 mg/kg CP 55,940
  2-palmitoyl glycerol Direction (rel to Veh): ↑
  2-palmitoyl glycerol, Magnitude (x Veh level): 1.57 x Veh level
  6-ketoPGF1α Direction (rel to Veh): ↓
  6-ketoPGF1α Magnitude (x Veh level): 0.68 x Veh level
  N-arachidonoyl GABA Direction (rel to Veh): ↓
  N-arachidonoyl GABA Magnitude (x Veh level): 0.83 x Veh level
  N-arachidonoyl alanine Direction (rel to Veh): ↓
  N-arachidonoyl alanine Magnitude (x Veh level): 0.77 x Veh level
  N-arachidonoyl glycine Direction (rel to Veh): ↓
  N-arachidonoyl glycine Magnitude (x Veh level): 0.75 x Veh level
  N-arachidonoyl methionine Direction (rel to Veh): ↓
  N-arachidonoyl methionine, Magnitude (x Veh level): 0.60 x Veh level
  N-arachidonoyl phenylalanine Direction (rel to Veh): ↓
  N-arachidonoyl phenylalanine, Magnitude (x Veh level): 0.76 x Veh level
  N-arachidonoyl serine Direction (rel to Veh): ↓
  N-arachidonoyl serine Magnitude (x Veh level): 0.75 x Veh level
  N-arachidonoyl taurine Direction (rel to Veh): ↓
  N-arachidonoyl taurine Magnitude (x Veh level): 0.83 x Veh level
  N-arachidonoyl tyrosine Direction (rel to Veh): ↓
  N-arachidonoyl tyrosine, Magnitude (x Veh level): 0.73 x Veh level
  N-docosahexaenoyl GABA Direction (rel to Veh): ↓
  N-docosahexaenoyl GABA Magnitude (x Veh level): 0.88 x Veh level
  N-docosahexaenoyl glycine Direction (rel to Veh): ↓
  N-docosahexaenoyl glycine Magnitude (x Veh level): 0.78 x Veh level
  N-docosahexaenoyl leucine Direction (rel to Veh): ↑
  N-docosahexaenoyl leucine Magnitude (x Veh level): 1.52 x Veh level
  N-docosahexaenoyl serine Direction (rel to Veh): ↓
  N-docosahexaenoyl serine Magnitude (x Veh level): 0.62 x Veh level
  N-docosahexaenoyl valine Direction (rel to Veh): ↑
  N-docosahexaenoyl valine Magnitude (x Veh level): 1.37 x Veh level
  N-linoleoyl GABA Direction (rel to Veh): ↓
  N-linoleoyl GABA Magnitude (x Veh level): 0.88 x Veh level
  N-linoleoyl glycine Direction (rel to Veh): ↓
  N-linoleoyl glycine Magnitude (x Veh level): 0.69 x Veh level
  N-oleoyl GABA Direction (rel to Veh): ↓
  N-oleoyl GABA Magnitude (x Veh level): 0.81 x Veh level
  N-oleoyl alanine Direction (rel to Veh): ↓
  N-oleoyl alanine Magnitude (x Veh level): 0.75 x Veh level
  N-oleoyl glycine Direction (rel to Veh): ↓
  N-oleoyl glycine Magnitude (x Veh level): 0.89 x Veh level
  N-oleoyl leucine Direction (rel to Veh): ↑
  N-oleoyl leucine Magnitude (x Veh level): 1.22 x Veh level
  N-oleoyl methionine Direction (rel to Veh): ↓
  N-oleoyl methionine, Magnitude (x Veh level): 0.67 x Veh level
  N-oleoyl valine Direction (rel to Veh): ↑
